Read-outs that look alike come from different tables or passages of the source.
Biological target: T1, HIV protease (Human immunodeficiency virus type 1 group M subtype B, UniProt P04585)
T1 construct: an HIV-encoded enzyme known as HIV protease
Assay: biochemical
Details: read-out: IC50 (concentration causing 50% inhibition of HIV protease)
From the text: The procedure is based on the capacity of the test compound to inhibit enzymatic cleavage by HIV protease of a decapeptide (the substrate) having an amino acid sequence which includes a known HIV protease cleavage site of a HIV polyprotein; see H. G. Krausslich et al., Proc. Natl. Acad. Sci. USA, 86, 807 (1989).
Anderson, S. Rakhit and C. Yoakim in the European patent application 443 560, published Aug. 28, 1991.

[1] = recombinant HIV protease, decapeptide substrate, HPLC assay

Row | SMILES | IC50 [1] | IC50
1 | CCC(CC)NC(=O)C[C@@H](C(=O)NC[C@@H](O)[C@H](Cc1ccccc1)NC(=O)[C@H](CC(=O)O)NC(=O)OC(C)(C)C)C(C)(C)C [Entry 2] | 0.09 µM | –
2 | CCC(CC)NC(=O)C[C@@H](C(=O)NC[C@@H](O)[C@H](Cc1ccccc1)NC(=O)[C@@H](NC(=O)c1ccc2ccccc2n1)C1(C(=O)O)CCCC1)C(C)(C)C [Entry 33] | 0.003 µM | –
3 | CCC(CC)NC(=O)C[C@H](C(=O)NC[C@@H](O)[C@H](Cc1ccccc1)NC(=O)[C@@H](NC(=O)OCc1ccccc1)C(C)(C)C)C(C)(C)C [Entry 60] | 0.029 µM | –
4 | CCC(CC)NC(=O)C[C@@H](C(=O)NC[C@@H](O)[C@H](Cc1ccc(O)cc1)NC(=O)[C@@H](NC(=O)c1ccc2ccccc2n1)[C@@H](C)O)C(C)(C)C [Entry 62, N^1-(1-ethylpropyl)-N^4 -{3(S)-{[N-(2-quinolylcarbonyl)-threonyl]amino}-2(R)-hydroxy-4-(4-hydroxyphenyl)butyl}-3(R)-tert-butylbutanediamide] | 0.061 µM | –
5 | CCC(CC)NC(=O)CC(C(=O)NC[C@@H](O)[C@H](Cc1ccccc1)NC(=O)[C@H](CC(N)=O)NC(=O)c1ccc2ccccc2n1)C(C)C (stereo partly shown) [Entry 50] | 0.009 µM | –
6 | CCC(CC)NC(=O)[C@H](CC(=O)NC[C@@H](O)[C@H](Cc1ccccc1)NC(=O)[C@@H](NC(=O)OCc1ccccc1)C(C)C)C(C)(C)C [Entry 61] | 0.013 µM | –
7 | CCC(CC)NC(=O)C[C@@H](C(=O)NC[C@@H](O)[C@H](Cc1ccccc1)NC(=O)[C@H](CC(N)=O)NC(=O)c1cnc2ccccc2c1)C(C)(C)C [Entry 39] | 0.002 µM | –
8 | CCC(CC)NC(=O)C[C@@H](C(=O)NC[C@@H](O)[C@H](Cc1ccccc1)NC(=O)[C@@H](NC(=O)OC(C)(C)C)[C@@H](C)C(=O)O)C(C)(C)C [Entry 16] | 0.007 µM | –
9 | CCC(CC)NC(=O)C[C@@H](C(=O)NC[C@@H](O)[C@H](Cc1ccccc1)NC(=O)[C@@H](NC(=O)OC(C)(C)C)C(C)(C)C)C(C)(C)C [Entry 1] | 0.1 µM | –
10 | CCC(CC)NC(=O)C[C@@H](C(=O)NC[C@@H](O)[C@H](Cc1ccccc1)NC(=O)[C@@H](NC(=O)c1ccc2ccccc2n1)[C@@H](C)C(=O)O)C(C)(C)C [Entry 22] | 0.005 µM | –
11 | CC(C)[C@H](NC(=O)OCc1ccccc1)C(=O)N[C@@H](Cc1ccccc1)[C@H](O)CNC(=O)C1CCCCC1C(=O)NCC(C)(C)C (stereo partly shown) [Entry 55] | 0.066 µM | –
12 | CC(C)OC(=O)C[C@@H](C(=O)NC[C@@H](O)[C@H](Cc1ccccc1)NC(=O)[C@@H](NC(=O)c1ccc2ccccc2n1)[C@@H](C)O)C(C)(C)C [Entry 58, 3(R)-tert-butyl-4-{2(R)-hydroxy-4-phenyl-3(S)-{[N-(2-quinolylcarbonyl)threonyl]-amino}butylamino}-4-oxobutyric acid isopropyl ester] | 0.046 µM | –
13 | CCC(CC)NC(=O)C[C@@H](C(=O)NC[C@@H](O)[C@H](Cc1ccccc1)NC(=O)[C@H](CC(N)=O)NC(=O)NCc1ccccc1)C(C)(C)C [Entry 14] | 0.011 µM | –
14 | CCC(CC)NC(=O)C[C@@H](C(=O)NC[C@@H](O)[C@H](Cc1ccccc1)NC(=O)[C@H](CCC(N)=O)NC(=O)OCc1ccccc1)C(C)(C)C [Entry 8] | 0.019 µM | –
15 | CCC(CC)NC(=O)C[C@@H](C(=O)NC[C@@H](O)[C@H](Cc1ccccc1)NC(=O)[C@H](CC(N)=O)NC(=O)c1ccc2ncccc2c1)C(C)(C)C [Entry 38] | 0.002 µM | –
16 | CCC(CC)NC(=O)C(CC(=O)NC[C@@H](O)[C@H](Cc1ccccc1)NC(=O)[C@@H](NC(=O)OCc1ccccc1)C(C)C)CC(C)(C)C (stereo partly shown) [Entry 54] | 0.05 µM | –
17 | CCCC(CCC)NC(=O)C1CCCCC1C(=O)NC[C@@H](O)[C@H](Cc1ccccc1)NC(=O)[C@@H](NC(=O)OCc1ccccc1)C(C)C (stereo partly shown) [Entry 56] | 0.029 µM | –
18 | CCC(CC)NC(=O)C[C@@H](C(=O)NC[C@@H](O)[C@H](Cc1ccccc1)NC(=O)[C@H](CC(N)=O)NC(=O)CCN1CCCCC1)C(C)(C)C [Entry 3] | 0.088 µM | –
19 | CCC(CC)NC(=O)C[C@@H](C(=O)NC[C@@H](O)[C@H](Cc1ccccc1)NC(=O)[C@H](CC(N)=O)NC(=O)C1Cc2ccccc2N1)C(C)(C)C (stereo partly shown) [Entry 30] | – | 0.003 µM
